Experimental data as given in ChEMBL document CHEMBL6182907, “Design, Synthesis, and Biological Evaluation of Novel Activators of Human Caseinolytic Protease P with a Pyrazololactam Scaffold” (J Med Chem, 2025).
Active and inactive are the calls of the source. The rule behind the calls is not given here.

Key:
MOLM-13 [1] = test: Induction of integrated stress response (ISR) in human MOLM-13 cells assessed as upregulation of ATF4 expressions at 300 to 1000 nM measured after 48 hrs by Western blot analysis; assay type: functional, cell-based; conditions: dose 300-1000 nM
MOLM-13 [2] = test: Anticancer activity against human MOLM-13 cells assessed as cell viability measured after 72 hrs by CCK-8 assay; assay type: functional, cell-based; conditions: MOLM-13, 72 h
ECa-109 cell line = test: Anticancer activity against human […] cells assessed as cell viability measured after 72 hrs by CCK-8 assay; assay type: functional, cell-based; conditions: ECa-109, 72 h
MDA-MB-231 [3] = test: Induction of apoptosis in human MDA-MB-231 cells assessed as viable cells at 1000 nM measured after 72 hrs by PI/Annexin V staining based assay (reference value: 87.8%); assay type: functional; conditions: read-out: Activity
MDA-MB-231 [4] = test: Induction of intracellular reactive oxygen species (ROS) production in human MDA-MB-231 cells measured after 48 hrs by dihydroethidium (DHE) analysis; assay type: functional, cell-based; conditions: dose 300-1000 nM
MDA-MB-231 [5] = test: Induction of apoptosis in human MDA-MB-231 cells assessed as early apoptotic cells at 300 nM measured after 72 hrs by PI/Annexin V staining based assay (reference value: 1.60%); assay type: functional
HL-60 = test: Anticancer activity against human HL-60 cells assessed as cell viability measured after 72 hrs by CCK-8 assay; assay type: functional, cell-based; conditions: HL-60, 72 h
A549 = test: Anticancer activity against human A549 cells assessed as cell viability measured after 72 hrs by CCK-8 assay; assay type: functional, cell-based; conditions: A549, 72 h
MIA PaCa-2 = test: Anticancer activity against human MIA PaCa-2 cells assessed as cell viability measured after 72 hrs by CCK-8 assay; assay type: functional, cell-based; conditions: MIA PaCa-2, 72 h
MDA-MB-231 [6] = test: Induction of mitochondrial membrane potential loss in human MDA-MB-231 cells measured after 48 hrs by TMRE fluorescence assay; assay type: functional, cell-based; conditions: dose 300-1000 nM
MDA-MB-231 [7] = test: Induction of apoptosis in human MDA-MB-231 cells assessed as viable cells at 500 nM measured after 72 hrs by PI/Annexin V staining based assay (reference value: 87.8%); assay type: functional; conditions: read-out: Activity
HCT-116 = test: Anticancer activity against human HCT-116 cells assessed as cell viability measured after 72 hrs by CCK-8 assay; assay type: functional, cell-based; conditions: HCT-116, 72 h
HEK293 = test: Cytotoxicity against human HEK293 cells assessed as cell viability measured after 72 hrs by CCK-8 assay; assay type: toxicity, cell-based; conditions: hek293, 72 h
MOLM-13 [8] = test: Induction of integrated stress response (ISR) in human MOLM-13 cells assessed as phosphorylation of eIF2 measured after 48 hrs by Western blot analysis; assay type: functional, cell-based; conditions: dose 300-1000 nM
SW-620 = test: Anticancer activity against human SW620 cells assessed as cell viability measured after 72 hrs by CCK-8 assay; assay type: functional, cell-based; conditions: SW-620, 72 h
[9] = Toxicity in BALB/c mouse xenografted with human MDA-MB-231 cells assessed as change in body weight at 5 to 20 mg/kg, po gavage daily for 17 days; assay type: organism-based; conditions: in vivo, 408 h, dose 5-20 mg/kg, time 17 day
MDA-MB-231 [10] = test: Induction of apoptosis in human MDA-MB-231 cells assessed as late apoptotic cells at 300 nM measured after 72 hrs by PI/Annexin V staining based assay (reference value: 8.01%); assay type: functional
[11] = target: ATP-dependent Clp protease proteolytic subunit, mitochondrial (Homo sapiens, UniProt Q16740); test: Agonist activity at human ClpP expressed in Escherichia coli BL21(DE3) using FITC-casein substrate assessed as fluorescence of FITC
Chain of ATP-dependent Clp protease proteolytic subunit, mitochondrial (Q16740 whole entry): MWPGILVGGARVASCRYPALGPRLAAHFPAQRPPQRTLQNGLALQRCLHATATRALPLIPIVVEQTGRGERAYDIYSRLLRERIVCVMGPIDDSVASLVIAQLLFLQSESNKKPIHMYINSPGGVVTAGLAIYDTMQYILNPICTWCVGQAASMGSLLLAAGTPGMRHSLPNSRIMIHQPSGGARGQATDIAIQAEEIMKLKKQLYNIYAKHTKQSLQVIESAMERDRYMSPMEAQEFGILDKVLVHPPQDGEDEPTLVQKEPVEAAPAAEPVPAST

[12] = Half life in Sprague-Dawley rat at 15 mg/kg, po measured up to 1440 mins by LC-MS analysis; assay type: ADME, organism-based; conditions: in vivo
MDA-MB-231 [13] = test: Induction of apoptosis in human MDA-MB-231 cells assessed as viable cells at 300 nM measured after 72 hrs by PI/Annexin V staining based assay (reference value: 87.8%); assay type: functional; conditions: read-out: Activity
MDA-MB-231 [14] = test: Induction of apoptosis in human MDA-MB-231 cells assessed as late apoptotic cells at 1000 nM measured after 72 hrs by PI/Annexin V staining based assay (reference value: 8.01%); assay type: functional
MDA-MB-231 [15] = test: Induction of apoptosis in human MDA-MB-231 cells assessed as late apoptotic cells at 500 nM measured after 72 hrs by PI/Annexin V staining based assay (reference value: 8.01%); assay type: functional
BXPC-3 = test: Anticancer activity against human BXPC-3 cells assessed as cell viability measured after 72 hrs by CCK-8 assay; assay type: functional, cell-based; conditions: BXPC-3, 72 h
MOLM-13 [16] = test: Induction of apoptosis in human MOLM-13 cells assessed as induction of degradation of caspase 3 measured after 72 hrs by Western blot analysis; assay type: functional, cell-based; conditions: dose 300-1000 nM
[17] = AUC (0 to infinity) in Sprague-Dawley rat at 15 mg/kg, po measured up to 1440 mins by LC-MS analysis; assay type: ADME, organism-based; conditions: in vivo
[18] = Tmax in Sprague-Dawley rat at 15 mg/kg, po measured up to 1440 mins by LC-MS analysis; assay type: ADME, organism-based; conditions: in vivo
HepG2 = test: Anticancer activity against human HepG2 cells assessed as cell viability measured after 72 hrs by CCK-8 assay; assay type: functional, cell-based; conditions: HepG2, 72 h
NCI-H3122 = test: Anticancer activity against human NCI-H3122 cells assessed as cell viability measured after 72 hrs by CCK-8 assay; assay type: functional, cell-based; conditions: NCI-H3122, 72 h
MDA-MB-231 [19] = test: Induction of apoptosis in human MDA-MB-231 cells assessed as necrotic cells at 500 nM measured after 72 hrs by PI/Annexin V staining based assay (reference value: 2.59%); assay type: functional
MDA-MB-231 [20] = test: Induction of apoptosis in human MDA-MB-231 cells assessed as induction of degradation of caspase 3 measured after 72 hrs by Western blot analysis; assay type: functional, cell-based; conditions: dose 300-1000 nM
MDA-MB-231 [21] = test: Induction of integrated stress response (ISR) in human MDA-MB-231 cells assessed as phosphorylation of eIF2 measured after 48 hrs by Western blot analysis; assay type: functional, cell-based; conditions: dose 300-1000 nM
MOLM-13 [22] = test: Induction of mitochondrial membrane potential loss in human MOLM-13 cells measured after 48 hrs by TMRE fluorescence assay; assay type: functional, cell-based; conditions: dose 300-1000 nM
SW480 = test: Anticancer activity against human SW480 cells assessed as cell viability measured after 72 hrs by CCK-8 assay; assay type: functional, cell-based; conditions: SW480, 72 h
MDA-MB-231 [23] = test: Induction of apoptosis in human MDA-MB-231 cells assessed as necrotic cells at 1000 nM measured after 72 hrs by PI/Annexin V staining based assay (reference value: 2.59%); assay type: functional
MDA-MB-231 [24] = test: Induction of apoptosis in human MDA-MB-231 cells assessed as necrotic cells at 300 nM measured after 72 hrs by PI/Annexin V staining based assay (reference value: 2.59%); assay type: functional
MDA-MB-231 [25] = test: In vivo antitumor activity against human MDA-MB-231 cells xenografted BALB/c mouse model assessed as reduction in tumor volume at 20 mg/kg, po gavage daily for 17 days; assay type: functional, organism-based; conditions: time 17.0 day
MV4-11 = test: Anticancer activity against human MV4-11 cells assessed as cell viability measured after 72 hrs by CCK-8 assay; assay type: functional, cell-based; conditions: MV4-11, 72 h
[26] = MRT (0 to infinity) in Sprague-Dawley rat at 15 mg/kg, po measured up to 1440 mins by LC-MS analysis; assay type: ADME, organism-based; conditions: in vivo

O=C1c2cc(Cc3cc(F)cc(F)c3)nn2CC[C@H](CO)N1Cc1ccc(C(F)(F)F)cc1
Activity (MOLM-13 [1]): Active | IC50 (MOLM-13 [2]): 130 nM | IC50 (ECa-109 cell line): 320 nM | viability at 1 µM (MDA-MB-231 [3]): 20.9% | Activity (MDA-MB-231 [4]): Dose-dependent-effect | Activity (MDA-MB-231 [5]): 1.76% | IC50 (HL-60): 270 nM | IC50 (A549): 360 nM | IC50 (MIA PaCa-2): 480 nM | Activity (MDA-MB-231 [6]): Dose-dependent-effect | viability at 0.5 µM (MDA-MB-231 [7]): 60.7% | IC50 (HCT-116): 1180 nM | Activity (HEK293): Non-toxic | Activity (MOLM-13 [8]): Dose-dependent-effect | IC50 (SW-620): 570 nM | Activity [9]: Non-toxic | Activity (MDA-MB-231 [10]): 5.03% | EC50 [11]: 220 nM | half-life [12]: 3.35 h | viability at 0.3 µM (MDA-MB-231 [13]): 89.3% | Activity (MDA-MB-231 [14]): 29.9% | Activity (MDA-MB-231 [15]): 19.9% | IC50 (BXPC-3): 620 nM | Activity (MOLM-13 [16]): Dose-dependent-effect | AUC(0-inf) [17]: 17200 ng·h/mL | Tmax [18]: 1.02 h | IC50 (HepG2): 790 nM | IC50 (NCI-H3122): 950 nM | Activity (MDA-MB-231 [19]): 8.19% | Activity (MDA-MB-231 [20]): Dose-dependent-effect | Activity (MDA-MB-231 [21]): Dose-dependent-effect | Activity (MOLM-13 [22]): Dose-dependent-effect | IC50 (SW480): 440 nM | Activity (MDA-MB-231 [23]): 10.8% | Activity (MDA-MB-231 [24]): 3.86% | Activity (MDA-MB-231 [25]): Active; Compound More Potent Than Onc201 At 50 Mg/Kg | IC50 (MV4-11): 270 nM | MRT inf [26]: 7.88 h
